Assay results: patent US20250302832A1, “PYRAZINE DERIVATIVES AND USES THEREOF” (FOGHORN THERAPEUTICS INC., priority 2022, published 2025)

Key:
HiBit-BRM fusion protein = target: T1, HiBit-BRM fusion protein (Homo sapiens, UniProt P51531); assay: HiBiT-BRM cell-based degradation assay (Nano-Glo HiBiT lytic detection, 24 h); conditions: HeLa cell line expressing HiBiT-BRM; for DC50: read-out: BRM HiBit Degradation IC50
T1 construct: expressed in transfected cells
Outline: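 Stable HeLa HiBiT-BRM cells treated 24 h with compounds (10-point 3-fold dilutions, 30 μM final top dose, duplicate). HiBiT levels read by Nano-Glo lytic luminescence; % degradation normalised to DMSO (high control) and 2 μM reference BRM/BRG1 degrader (low control).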

[1] = target: T2, HiBit-BRG1 fusion protein (Homo sapiens, UniProt P51532); assay: HiBiT-BRG1 cell-based degradation assay (Nano-Glo HiBiT lytic detection, 24 h); conditions: HeLa cell line expressing HiBit-BRG1 and LgBit; for Dmax: read-out: BRG1 HiBit Degradation Maximum (%); for DC50: read-out: BRMG1 HiBit Degradation IC50
T2 construct: expressed in transfected cells
T2 sequence (P51532 whole entry, the tested form may be a part): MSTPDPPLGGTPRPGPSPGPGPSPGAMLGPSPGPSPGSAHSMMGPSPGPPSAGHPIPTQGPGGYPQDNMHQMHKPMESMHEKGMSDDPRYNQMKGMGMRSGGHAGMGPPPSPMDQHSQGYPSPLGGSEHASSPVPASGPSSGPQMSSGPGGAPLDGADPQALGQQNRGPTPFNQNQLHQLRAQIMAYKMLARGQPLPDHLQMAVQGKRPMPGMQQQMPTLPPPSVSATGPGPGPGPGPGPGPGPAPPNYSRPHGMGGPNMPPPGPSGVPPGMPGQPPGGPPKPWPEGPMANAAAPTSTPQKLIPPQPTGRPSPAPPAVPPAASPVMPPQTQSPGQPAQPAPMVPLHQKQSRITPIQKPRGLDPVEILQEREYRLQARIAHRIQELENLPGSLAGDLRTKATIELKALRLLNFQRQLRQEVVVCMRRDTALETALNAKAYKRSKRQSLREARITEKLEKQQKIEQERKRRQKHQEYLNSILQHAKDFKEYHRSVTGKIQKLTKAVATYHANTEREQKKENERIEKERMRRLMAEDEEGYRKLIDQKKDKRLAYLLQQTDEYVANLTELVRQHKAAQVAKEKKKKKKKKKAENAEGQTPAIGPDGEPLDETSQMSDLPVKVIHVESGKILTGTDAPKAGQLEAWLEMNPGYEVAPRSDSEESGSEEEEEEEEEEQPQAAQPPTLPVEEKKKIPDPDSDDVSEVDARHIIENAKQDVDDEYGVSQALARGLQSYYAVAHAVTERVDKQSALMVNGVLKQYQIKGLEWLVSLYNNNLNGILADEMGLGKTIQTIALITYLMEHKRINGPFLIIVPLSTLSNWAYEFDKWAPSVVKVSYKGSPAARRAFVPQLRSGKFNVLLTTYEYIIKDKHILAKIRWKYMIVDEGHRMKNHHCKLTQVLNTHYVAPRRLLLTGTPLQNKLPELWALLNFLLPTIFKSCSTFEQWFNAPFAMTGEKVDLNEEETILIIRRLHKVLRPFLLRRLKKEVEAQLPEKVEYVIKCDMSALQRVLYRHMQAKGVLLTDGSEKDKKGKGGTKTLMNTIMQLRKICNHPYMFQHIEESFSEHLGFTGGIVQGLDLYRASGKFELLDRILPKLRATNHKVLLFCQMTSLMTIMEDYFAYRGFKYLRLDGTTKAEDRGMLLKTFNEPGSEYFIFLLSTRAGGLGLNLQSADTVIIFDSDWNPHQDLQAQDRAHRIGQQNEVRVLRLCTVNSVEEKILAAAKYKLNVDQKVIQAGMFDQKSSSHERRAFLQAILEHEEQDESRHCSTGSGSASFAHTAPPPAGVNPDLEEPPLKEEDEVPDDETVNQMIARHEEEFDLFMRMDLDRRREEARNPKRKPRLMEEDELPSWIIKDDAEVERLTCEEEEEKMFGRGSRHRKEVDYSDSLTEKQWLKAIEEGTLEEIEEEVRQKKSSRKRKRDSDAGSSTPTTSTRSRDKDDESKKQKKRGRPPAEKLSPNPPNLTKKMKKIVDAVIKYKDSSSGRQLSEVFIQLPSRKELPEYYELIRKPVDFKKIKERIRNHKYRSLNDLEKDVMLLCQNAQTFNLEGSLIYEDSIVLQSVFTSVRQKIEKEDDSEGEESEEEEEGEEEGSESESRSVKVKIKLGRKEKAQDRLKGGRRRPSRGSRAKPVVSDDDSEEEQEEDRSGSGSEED
Outline: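 HeLa cells stably expressing HiBiT-BRG1 and LgBiT, 5000 per well, compound-treated 24 h, equilibrated 15 min at room temperature, then lysed with LgBiT-containing Nano-Glo HiBiT lytic reagent and luminescence read. % degradation normalised between DMSO (high control) and 2 μM reference BRM/BRG1 degrader (low control).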

T1 sequence (P51531 whole entry, the tested form may be a part): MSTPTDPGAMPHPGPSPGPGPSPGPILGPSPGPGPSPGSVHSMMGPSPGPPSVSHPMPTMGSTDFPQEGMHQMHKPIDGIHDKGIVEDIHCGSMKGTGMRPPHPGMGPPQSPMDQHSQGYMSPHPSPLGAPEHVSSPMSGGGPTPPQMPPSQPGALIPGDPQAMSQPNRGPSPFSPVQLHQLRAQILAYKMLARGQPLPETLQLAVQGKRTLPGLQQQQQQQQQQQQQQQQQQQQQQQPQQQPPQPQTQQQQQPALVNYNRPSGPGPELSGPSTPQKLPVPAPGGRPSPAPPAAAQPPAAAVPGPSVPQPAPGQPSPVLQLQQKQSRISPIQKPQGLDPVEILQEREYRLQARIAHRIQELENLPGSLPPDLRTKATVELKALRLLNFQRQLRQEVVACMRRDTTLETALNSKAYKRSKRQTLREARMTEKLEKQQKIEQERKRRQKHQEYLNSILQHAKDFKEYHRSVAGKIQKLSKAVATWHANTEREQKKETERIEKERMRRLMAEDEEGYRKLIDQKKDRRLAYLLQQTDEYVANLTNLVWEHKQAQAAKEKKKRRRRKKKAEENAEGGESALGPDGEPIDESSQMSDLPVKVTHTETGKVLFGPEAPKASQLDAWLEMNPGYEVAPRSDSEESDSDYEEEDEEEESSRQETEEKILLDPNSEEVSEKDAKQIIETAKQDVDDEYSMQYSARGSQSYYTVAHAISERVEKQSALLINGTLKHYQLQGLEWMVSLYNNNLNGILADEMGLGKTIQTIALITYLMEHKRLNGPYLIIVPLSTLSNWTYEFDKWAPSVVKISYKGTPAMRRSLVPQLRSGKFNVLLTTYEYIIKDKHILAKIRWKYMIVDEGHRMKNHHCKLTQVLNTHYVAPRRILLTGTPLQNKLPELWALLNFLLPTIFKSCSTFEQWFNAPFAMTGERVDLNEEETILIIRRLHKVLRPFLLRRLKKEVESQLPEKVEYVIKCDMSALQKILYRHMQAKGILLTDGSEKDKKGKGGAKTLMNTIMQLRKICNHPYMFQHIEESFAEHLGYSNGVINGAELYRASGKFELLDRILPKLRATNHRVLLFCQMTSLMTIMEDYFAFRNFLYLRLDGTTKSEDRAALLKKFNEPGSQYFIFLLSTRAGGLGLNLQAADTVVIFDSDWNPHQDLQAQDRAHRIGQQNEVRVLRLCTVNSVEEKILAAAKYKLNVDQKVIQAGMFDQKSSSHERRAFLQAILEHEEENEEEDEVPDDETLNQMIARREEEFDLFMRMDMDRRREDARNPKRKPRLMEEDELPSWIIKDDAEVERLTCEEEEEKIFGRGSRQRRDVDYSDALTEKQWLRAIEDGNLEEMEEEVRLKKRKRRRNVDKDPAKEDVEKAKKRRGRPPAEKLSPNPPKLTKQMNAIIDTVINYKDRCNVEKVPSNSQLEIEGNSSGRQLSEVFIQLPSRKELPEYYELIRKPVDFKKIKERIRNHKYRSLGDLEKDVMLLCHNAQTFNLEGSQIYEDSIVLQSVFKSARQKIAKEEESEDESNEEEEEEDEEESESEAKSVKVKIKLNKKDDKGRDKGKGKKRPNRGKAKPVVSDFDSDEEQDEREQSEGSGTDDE

DC50 (HiBit-BRM fusion protein)	Dmax [1]	DC50 [1]	Structure (SMILES)	BRM HiBit Degradation Maximum (%) (HiBit-BRM fusion protein)
< 10 nM	< 50%		Cc1ncsc1-c1ccc(CNC(=O)[C@@H]2C[C@@H](O)CN2C(=O)[C@@H](c2cc(-c3cnc(N4CC[C@H](c5cc6nnc(-c7ccccc7O)cc6n5C5CC5)C4)nc3)no2)C(C)C)cc1 [Compound 90, (2S,4R)-1-((R)-2-(3-(2-((S)-3-(5-cyclopropyl-3-(2-hydroxyphenyl)-5H-pyrrolo[3,2-c]pyridazin-6-yl)pyrrolidin-1-yl)pyrimidin-5-yl)isoxazol-5-yl)-3-methylbutanoyl)-4-hydroxy-N-(4-(4-methylthiazol-5-yl)benzyl)pyrrolidine-2-carboxamide]	A (“A” indicates maximum degradation ≥75%)
< 10 nM	< 50%		CC(C)[C@@H](C(=O)N1C[C@H](O)C[C@H]1C(=O)N[C@@H](C)c1ccc(F)cc1)c1cc(-c2cnc(N3CC[C@H](c4cc5nnc(-c6ccccc6O)cc5n4C4CC4)C3)nc2)no1 [Compound 92, (2S,4R)-1-((R)-2-(3-(2-((S)-3-(5-cyclopropyl-3-(2-hydroxyphenyl)-5H-pyrrolo[3,2-c]pyridazin-6-yl)pyrrolidin-1-yl)pyrimidin-5-yl)isoxazol-5-yl)-3-methylbutanoyl)-N-((S)-1-(4-fluorophenyl)ethyl)-4-hydroxypyrrolidine-2-carboxamide]	A (“A” indicates maximum degradation ≥75%)
< 10 nM	< 50%		CC(C)[C@@H](C(=O)N1C[C@H](O)C[C@H]1C(=O)N[C@@H](C)c1ccccc1)c1cc(-c2cnc(N3CC[C@H](c4cc5nnc(-c6ccccc6O)cc5n4C4CC4)C3)nc2)no1 [Compound 93, (2S,4R)-1-((R)-2-(3-(2-((S)-3-(5-cyclopropyl-3-(2-hydroxyphenyl)-5H-pyrrolo[3,2-c]pyridazin-6-yl)pyrrolidin-1-yl)pyrimidin-5-yl)isoxazol-5-yl)-3-methylbutanoyl)-4-hydroxy-N-((S)-1-phenylethyl)pyrrolidine-2-carboxamide]	A (“A” indicates maximum degradation ≥75%)
< 10 nM	< 50%		Cc1ncsc1-c1ccc([C@H](C)NC(=O)[C@@H]2C[C@@H](O)CN2C(=O)[C@@H](c2cc(-c3cnc(N4CC[C@@H](c5cc6nnc(-c7ccccc7O)cc6n5C56CC(C5)C6)C4)nc3)no2)C(C)C)cc1 [Compound 94, (2S,4R)-1-((R)-2-(3-(2-((R)-3-(5-(bicyclo[1.1.1]pentan-1-yl)-3-(2-hydroxyphenyl)-5H-pyrrolo[3,2-c]pyridazin-6-yl)pyrrolidin-1-yl)pyrimidin-5-yl)isoxazol-5-yl)-3-methylbutanoyl)-4-hydroxy-N-((S)-1-(4-(4-methylthiazol-5-yl)phenyl)ethyl)pyrrolidine-2-carboxamide]	A (“A” indicates maximum degradation ≥75%)
< 10 nM	> 50%	> 10 nM	Cc1ncsc1-c1ccc([C@H](C)NC(=O)[C@@H]2C[C@@H](O)CN2C(=O)[C@@H](c2cc(-c3cnc(N4CC[C@H](c5cc6nnc(-c7ccccc7O)cc6n5C56CC(C5)C6)C4)nc3)no2)C(C)C)cc1 [Compound 95, (2S,4R)-1-((R)-2-(3-(2-((S)-3-(5-(bicyclo[1.1.1]pentan-1-yl)-3-(2-hydroxyphenyl)-5H-pyrrolo[3,2-c]pyridazin-6-yl)pyrrolidin-1-yl)pyrimidin-5-yl)isoxazol-5-yl)-3-methylbutanoyl)-4-hydroxy-N-((S)-1-(4-(4-methylthiazol-5-yl)phenyl)ethyl)pyrrolidine-2-carboxamide]	A (“A” indicates maximum degradation ≥75%)
< 10 nM	> 50%	> 10 nM	Cc1ncsc1-c1ccc([C@H](C)NC(=O)[C@@H]2C[C@@H](O)CN2C(=O)[C@@H](c2cc(N3CCC4(CC[C@H](c5cc6nnc(-c7ccccc7O)cc6n5C5CC5)C4)CC3)no2)C(C)C)cc1 [Compound 96, (2S,4R)-1-((R)-2-(3-((S)-2-(5-cyclopropyl-3-(2-hydroxyphenyl)-5H-pyrrolo[3,2-c]pyridazin-6-yl)-8-azaspiro[4.5]decan-8-yl)isoxazol-5-yl)-3-methylbutanoyl)-4-hydroxy-N-((S)-1-(4-(4-methylthiazol-5-yl)phenyl)ethyl)pyrrolidine-2-carboxamide]	A (“A” indicates maximum degradation ≥75%)
< 10 nM	< 50%		Cc1ncsc1-c1ccc([C@H](C)NC(=O)[C@@H]2C[C@@H](O)CN2C(=O)[C@@H](c2cc(N3CCC4(CC[C@@H](c5cc6nnc(-c7ccccc7O)cc6n5C5CC5)C4)CC3)no2)C(C)C)cc1 [Compound 97, (2S,4R)-1-((R)-2-(3-((R)-2-(5-cyclopropyl-3-(2-hydroxyphenyl)-5H-pyrrolo[3,2-c]pyridazin-6-yl)-8-azaspiro[4.5]decan-8-yl)isoxazol-5-yl)-3-methylbutanoyl)-4-hydroxy-N-((S)-1-(4-(4-methylthiazol-5-yl)phenyl)ethyl)pyrrolidine-2-carboxamide]	A (“A” indicates maximum degradation ≥75%)
> 10 nM	> 75%	> 10 nM	Cc1ncsc1-c1ccc([C@H](C)NC(=O)[C@@H]2C[C@@H](O)CN2C(=O)[C@@H](c2cc(N3CCC[C@H](c4cc5nnc(-c6ccccc6O)cc5n4C4CC4)C3)no2)C(C)C)cc1 [Compound 98, (2S,4R)-1-((R)-2-(3-((S)-3-(5-cyclopropyl-3-(2-hydroxyphenyl)-5H-pyrrolo[3,2-c]pyridazin-6-yl)piperidin-1-yl)isoxazol-5-yl)-3-methylbutanoyl)-4-hydroxy-N-((S)-1-(4-(4-methylthiazol-5-yl)phenyl)ethyl)pyrrolidine-2-carboxamide]	A (“A” indicates maximum degradation ≥75%)
< 10 nM	> 50%	> 10 nM	Cc1ncsc1-c1ccc([C@H](C)NC(=O)[C@@H]2C[C@@H](O)CN2C(=O)[C@@H](c2cc(N3CC[C@H](c4cc5nnc(-c6ccccc6O)cc5n4C4CC4)C3)no2)C(C)C)cc1 [Compound 99, (2S,4R)-1-((R)-2-(3-((S)-3-(5-cyclopropyl-3-(2-hydroxyphenyl)-5H-pyrrolo[3,2-c]pyridazin-6-yl)pyrrolidin-1-yl)isoxazol-5-yl)-3-methylbutanoyl)-4-hydroxy-N-((S)-1-(4-(4-methylthiazol-5-yl)phenyl)ethyl)pyrrolidine-2-carboxamide]	A (“A” indicates maximum degradation ≥75%)
> 10 nM	< 50%		Cc1ncsc1-c1ccc([C@H](C)NC(=O)[C@@H]2C[C@@H](O)CN2C(=O)[C@@H](c2cc(N3CCC[C@@H](c4cc5nnc(-c6ccccc6O)cc5n4C4CC4)C3)no2)C(C)C)cc1 [Compound 100, (2S,4R)-1-((R)-2-(3-((R)-3-(5-cyclopropyl-3-(2-hydroxyphenyl)-5H-pyrrolo[3,2-c]pyridazin-6-yl)piperidin-1-yl)isoxazol-5-yl)-3-methylbutanoyl)-4-hydroxy-N-((S)-1-(4-(4-methylthiazol-5-yl)phenyl)ethyl)pyrrolidine-2-carboxamide]	A (“A” indicates maximum degradation ≥75%)
< 10 nM	> 50%	> 10 nM	Cc1ncsc1-c1ccc([C@H](C)NC(=O)[C@@H]2C[C@@H](O)CN2C(=O)[C@@H](c2cc(N3C[C@@H]4C(c5cc6nnc(-c7ccccc7O)cc6n5C5CC5)[C@H]4C3)no2)C(C)C)cc1 (stereo partly drawn) [Compound 101, (2S,4R)-1-((R)-2-(3-((1S,5S)-6-(5-cyclopropyl-3-(2-hydroxyphenyl)-5H-pyrrolo[3,2-c]pyridazin-6-yl)-3-azabicyclo[3.1.0]hexan-3-yl)isoxazol-5-yl)-3-methylbutanoyl)-4-hydroxy-N-((S)-1-(4-(4-methylthiazol-5-yl)phenyl)ethyl)pyrrolidine-2-carboxamide]	A (“A” indicates maximum degradation ≥75%)
< 10 nM	< 50%		Cc1ncsc1-c1ccc([C@H](C)NC(=O)[C@@H]2C[C@@H](O)CN2C(=O)[C@@H](c2cc(-c3cnc(N4CC[C@@H](c5cc6nnc(-c7ccccc7O)cc6n5C5CCC5)C4)nc3)no2)C(C)C)cc1 [Compound 102, (2S,4R)-1-((R)-2-(3-(2-((R)-3-(5-cyclobutyl-3-(2-hydroxyphenyl)-5H-pyrrolo[3,2-c]pyridazin-6-yl)pyrrolidin-1-yl)pyrimidin-5-yl)isoxazol-5-yl)-3-methylbutanoyl)-4-hydroxy-N-((S)-1-(4-(4-methylthiazol-5-yl)phenyl)ethyl)pyrrolidine-2-carboxamide]	A (“A” indicates maximum degradation ≥75%)
< 10 nM	> 50%	< 10 nM	Cc1ncsc1-c1ccc([C@H](C)NC(=O)[C@@H]2C[C@@H](O)CN2C(=O)[C@@H](c2cc(-c3cnc(N4CC[C@@H](c5cc6nnc(-c7ccccc7O)cc6n5C5(C)CC5)C4)nc3)no2)C(C)C)cc1 [Compound 103, (2S,4R)-4-hydroxy-1-((R)-2-(3-(2-((R)-3-(3-(2-hydroxyphenyl)-5-(1-methylcyclopropyl)-5H-pyrrolo[3,2-c]pyridazin-6-yl)pyrrolidin-1-yl)pyrimidin-5-yl)isoxazol-5-yl)-3-methylbutanoyl)-N-((S)-1-(4-(4-methylthiazol-5-yl)phenyl)ethyl)pyrrolidine-2-carboxamide]	A (“A” indicates maximum degradation ≥75%)
